According to patent US10858342B2, “Bicyclic imidazole derivatives useful for the treatment of renal diseases, cardiovascular diseases and fibrotic diseases” (Boehringer Ingelheim International GmbH, priority 2016, dated 2020):
Where two headings read alike, the source gives them in different places.

Legend:
Format in all cases: biochemical, cynomolgus monkey
[1] = target: cortisol synthase (CYP11B1) (Macaca fascicularis, UniProt A0A2K5ULY1); assay: Inhibition of cortisol synthesis (cynomolgus adrenal mitochondria, cortisol by mass spectrometry)
In short: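 Cynomolgus adrenal mitochondria (150 units CYP11B1 activity) incubated with 11-deoxycortisol in 100 mM potassium phosphate pH 7.4, 1% DMSO; reaction started with 1 mM NADPH, 90 min at 37° C, stopped with MeCN. Cortisol quantified by mass spectrometry; IC50 from 4-parameter logistic fit versus no-compound (100%) and no-NADPH (0%) controls.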

[2] = target: aldosterone synthase (CYP11B2) (Macaca fascicularis, UniProt A0A2K5UPL9); assay: Inhibition of aldosterone synthase (cynomolgus adrenal mitochondria, aldosterone by mass spectrometry); details: 2 μM corticosterone substrate, 50 units CYP11B2, 90 min, 37° C.; read-out: Aldosterone Inhibition IC50
Chain of aldosterone synthase (CYP11B2) (Macaca fascicularis, UniProt A0A2K5UPL9) (A0A2K5UPL9 1-503): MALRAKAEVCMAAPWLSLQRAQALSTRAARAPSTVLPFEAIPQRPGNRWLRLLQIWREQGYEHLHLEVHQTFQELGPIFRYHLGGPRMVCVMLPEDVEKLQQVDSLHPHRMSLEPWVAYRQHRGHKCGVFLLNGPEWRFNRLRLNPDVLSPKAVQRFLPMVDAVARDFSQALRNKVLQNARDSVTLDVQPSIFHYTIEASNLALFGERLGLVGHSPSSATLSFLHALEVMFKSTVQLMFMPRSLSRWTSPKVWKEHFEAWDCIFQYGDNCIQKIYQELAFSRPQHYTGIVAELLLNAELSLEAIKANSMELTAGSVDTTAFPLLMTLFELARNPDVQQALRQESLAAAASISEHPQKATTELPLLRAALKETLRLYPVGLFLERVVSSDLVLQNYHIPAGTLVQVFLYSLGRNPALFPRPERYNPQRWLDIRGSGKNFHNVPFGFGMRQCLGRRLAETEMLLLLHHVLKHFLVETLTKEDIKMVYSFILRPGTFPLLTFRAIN
In short: (§1)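 Cynomolgus adrenal mitochondria (50 units CYP11B2 activity) incubated with 2 μM corticosterone in 100 mM potassium phosphate pH 7.4, 1% DMSO; started with 1 mM NADPH, 90 min at 37 °C. Aldosterone quantified by mass spectrometry; no-NADPH blank as 0%, no-compound as 100% activity, across compound concentrations.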

[3] = tested on: aldosterone synthase (CYP11B2); assay: as above; details: selectivity for aldosterone synthase inhibition over cortisol synthase (CYP11B1) inhibition, fold
In short: as §1

[4] = 11-deoxycortisol substrate, 150 units CYP11B1; read-out: Cortisol Inhibition IC50
[5] = read-out: Cortisol Inhibition IC50; 11-deoxycortisol substrate, 150 units CYP11B1

## CC1(C)CC(=O)c2c(ncn2CC2CCCCC2)C1 [C-ACP, 3-Cyclohexylmethyl-6,6-dimethyl-3,5,6,7-tetrahydro-benzoimidazol-4-one]
[1]; [4]
  IC50: 5900 nM
[2]
  IC50: 24 nM
[3]
  Selectivity: 240

## CC1(C)CC(=O)c2c(ncn2C2CCc3ccccc32)C1 (stereo not drawn) [C-ACQ, 3-Indan-1-yl-6,6-dimethyl-3,5,6,7-tetrahydro-benzoimidazol-4-one]
[1]; [4]
  IC50: > 30000 nM
[2]
  IC50: 220 nM
[3]
  Selectivity: 130

## CN1C[C@@H](n2cnc3c2C(=O)CC(C)(C)C3)CCC1=O [C-ACR, 6,6-Dimethyl-3-((S)-1-methyl-6-oxo-piperidin-3-yl)-3,5,6,7-tetrahydrobenzoimidazol-4-one]
[1]; [4]
  IC50: > 30000 nM
[2]
  IC50: 785 nM
[3]
  Selectivity: 38

## CC1(C)CC(=O)c2c(ncn2C2CC3(COC3)C2)C1 [C-ACT, 6,6-Dimethyl-3-(2-oxa-spiro[3.3]hept-6-yl)-3,5,6,7-tetrahydro-benzoimidazol-4-one]
[1]; [4]
  IC50: > 30000 nM
[2]
  IC50: 780 nM
[3]
  Selectivity: 38

## CC1(C)CC(=O)c2c(ncn2C2CC(c3ccccc3)C2)C1 (stereo not drawn) [C-ACU, 6,6-Dimethyl-3-(3-phenyl-cyclobutyl)-3,5,6,7-tetrahydro-benzoimidazol-4-one]
[1]; [4]
  IC50: 9400 nM
[2]
  IC50: 110 nM
[3]
  Selectivity: 85

## CC1(C)CC(=O)c2c(ncn2C2CCc3ncncc3C2)C1 (stereo not drawn) [C-ACV, 6,6-Dimethyl-3-(5,6,7,8-tetrahydro-quinazolin-6-yl)-3,5,6,7-tetrahydro-benzoimidazol-4-one]
[1]; [4]
  IC50: > 30000 nM
[2]
  IC50: 860 nM
[3]
  Selectivity: 35

## CC1(C)CC(=O)c2c(ncn2C2CCCCc3ccccc32)C1 (stereo not drawn) [C-ACW, 6,6-Dimethyl-3-(6,7,8,9-tetrahydro-5H-benzocyclohepten-5-yl)-3,5,6,7-tetrahydro-benzoimidazol-4-one]
[1]; [4]
  IC50: 7200 nM
[2]
  IC50: 24 nM
[3]
  Selectivity: 300

## CC1(C)CC(=O)c2c(ncn2CC2CCOC2)C1 (stereo not drawn) [C-ACX, 6,6-Dimethyl-3-(tetrahydro-furan-3-ylmethyl)-3,5,6,7-tetrahydro-benzoimidazol-4-one]
[1]; [4]
  IC50: > 30000 nM
[2]
  IC50: 870 nM
[3]
  Selectivity: 35

## CC1(C)CC(=O)c2c(ncn2Cc2ccc3[nH]ncc3c2)C1 [C-ACY, 3-(1H-Indazol-5-ylmethyl)-6,6-dimethyl-3,5,6,7-tetrahydro-benzoimidazol-4-one]
[1]; [4]
  IC50: 1700 nM
[2]
  IC50: 110 nM
[3]
  Selectivity: 15

## COC(=O)c1ccc(Cn2cnc3c2C(=O)CC(C)(C)C3)cc1 [C-ACZ, 4-(5,5-Dimethyl-7-oxo-4,5,6,7-tetrahydro-benzoimidazol-1-ylmethyl)-benzoic acid methyl ester]
[1]; [4]
  IC50: 1400 nM
[2]
  IC50: 34 nM
[3]
  Selectivity: 41

## CC1(C)CC(=O)c2c(ncn2CC2CC2)C1 [C-ADA, 3-Cyclopropylmethyl-6,6-dimethyl-3,5,6,7-tetrahydro-benzoimidazol-4-one]
[1]; [4]
  IC50: 12000 nM
[2]
  IC50: 530 nM
[3]
  Selectivity: 23

## CC1(C)CC(=O)c2c(ncn2Cc2ccc(-n3cncn3)cc2)C1 [C-ADB, 6,6-Dimethyl-3-(4-[1,2,4]triazol-1-yl-benzyl)-3,5,6,7-tetrahydro-benzoimidazol-4-one]
[1]; [4]
  IC50: 7400 nM
[2]
  IC50: 540 nM
[3]
  Selectivity: 14

## Cc1nnsc1Cn1cnc2c1C(=O)CC(C)(C)C2 [C-ADC, 6,6-Dimethyl-3-(4-methyl-[1,2,3]thiadiazol-5-ylmethyl)-3,5,6,7-tetrahydro-benzoimidazol-4-one]
[1]; [4]
  IC50: 45000 nM
[2]
  IC50: 250 nM
[3]
  Selectivity: 180

## CN1CCOc2cc(Cn3cnc4c3C(=O)CC(C)(C)C4)cnc21 [C-ADD, 6,6-Dimethyl-3-(4-methyl-3,4-dihydro-2H-pyrido[3,2-b][1,4]oxazin-7-ylmethyl)-3,5,6,7-tetrahydro-benzoimidazol-4-one]
[1]; [4]
  IC50: 11000 nM
[2]
  IC50: 540 nM
[3]
  Selectivity: 20

## CC1(C)CC(=O)c2c(ncn2C2CCc3ccccc3C2)C1 (stereo not drawn) [C-ADH, 6,6-Dimethyl-3-(1,2,3,4-tetrahydro-naphthalen-2-yl)-3,5,6,7-tetrahydro-benzoimidazol-4-one]
[1]; [4]
  IC50: 29000 nM
[2]
  IC50: 10 nM
[3]
  Selectivity: 2900

## CC1(C)CC(=O)c2c(ncn2CC2CCOCC2)C1 [C-ADI, 6,6-Dimethyl-3-(tetrahydro-pyran-4-ylmethyl)-3,5,6,7-tetrahydro-benzoimidazol-4-one]
[1]; [4]
  IC50: 19000 nM
[2]
  IC50: 470 nM
[3]
  Selectivity: 41

## O=C1CCCc2ncn(C3CCc4ccccc4C3)c21 (stereo not drawn) [C-ADJ, 3-(1,2,3,4-Tetrahydro-naphthalen-2-yl)-3,5,6,7-tetrahydro-benzoimidazol-4-one]
[1]; [4]
  IC50: 1200 nM
[2]
  IC50: 2.8 nM
[3]
  Selectivity: 420

## O=C1CCCc2ncn(C3Cc4ccccc4C3)c21 [C-ADK, 3-Indan-2-yl-3,5,6,7-tetrahydro-benzoimidazol-4-one]
[1]; [4]
  IC50: 8400 nM
[2]
  IC50: 21 nM
[3]
  Selectivity: 400

## CC1(C)CC(=O)c2c(ncn2C2CCc3cc(C#N)ccc3C2)C1 (stereo not drawn) [C-ADN, 6-(5,5-Dimethyl-7-oxo-4,5,6,-tetrahydro-benzoimidazol-1-yl)-5,6,7,8-tetrahydro-naphthalene-2-carbonitrile]
[1]; [4]
  IC50: > 30000 nM
[2]
  IC50: 190 nM
[3]
  Selectivity: 160

## CC1(C)CC(=O)c2c(ncn2Cc2ccc(F)cc2)C1 [C-ADO, 3-(4-Fluoro-benzyl)-6,6-dimethyl-3,5,6,7-tetrahydro-benzoimidazol-4-one]
[1]; [4]
  IC50: 5400 nM
[2]
  IC50: 56 nM
[3]
  Selectivity: 96

## CC1(C)CC(=O)c2c(ncn2Cc2ccc(S(C)(=O)=O)cc2)C1 [C-ADP, 3-(4-Methanesulfonyl-benzyl)-6,6-dimethyl-3,5,6,7-tetrahydro-benzoimidazol-4-one]
[1]; [4]
  IC50: 1600 nM
[2]
  IC50: 92 nM
[3]
  Selectivity: 17

## COc1ccc(Cn2cnc3c2C(=O)CC(C)(C)C3)cc1 [C-ADQ, 3-(4-Methoxy-benzyl)-6,6-dimethyl-3,5,6,7-tetrahydro-benzoimidazol-4-one]
[1]; [4]
  IC50: 2100 nM
[2]
  IC50: 96 nM
[3]
  Selectivity: 22

## CC1(C)CC(=O)c2c(ncn2Cc2ccccc2)C1 [C-ADR, 3-Benzyl-6,6-dimethyl-3,5,6,7-tetrahydro-benzoimidazol-4-one]
[1]; [4]
  IC50: 9400 nM
[2]
  IC50: 97 nM
[3]
  Selectivity: 97

## CN(CCO)C(=O)c1ccc(Cn2cnc3c2C(=O)CC(C)(C)C3)cc1 [C-ADS, 4-(5,5-Dimethyl-7-oxo-4,5,6,7-tetrahydro-benzoimidazol-1-ylmethyl)-N-(2-hydroxy-ethyl)-N-methyl-benzamide]
[1]; [4]
  IC50: 43000 nM
[2]
  IC50: 290 nM
[3]
  Selectivity: 150

## CC1(C)CC(=O)c2c(ncn2Cc2ccc(C(=O)NCCS(C)(=O)=O)cc2)C1 [C-ADU, 4-(5,5-Dimethyl-7-oxo-4,5,6,7-tetrahydro-benzoimidazol-1-ylmethyl)-N-(2-methanesulfonyl-ethyl)-benzamide]
[1]; [4]
  IC50: 6200 nM
[2]
  IC50: 210 nM
[3]
  Selectivity: 30

## CC1(C)CC(=O)c2c(ncn2Cc2ccc(C(C)(C)O)cc2)C1 [C-ADV, 3-[4-(1-Hydroxy-1-methyl-ethyl)-benzyl]-6,6-dimethyl-3,5,6,7-tetrahydro-benzoimidazol-4-one]
[1]; [4]
  IC50: 35 nM
[2]
  IC50: 25 nM
[3]
  Selectivity: 1.4

## CC1(C)CCc2ncn(-c3ccc(C#N)cc3)c2C1=O [C-ADX, 4-(6,6-Dimethyl-7-oxo-4,5,6,7-tetrahydro-benzoimidazol-1-yl)-benzonitrile]
[1]; [4]
  IC50: 2140 nM
[2]
  IC50: 14 nM
[3]
  Selectivity: 153

## CC1CCc2ncn(-c3ccc(C#N)cc3)c2C1=O (stereo not drawn) [C-ADY, 4-(6-Methyl-7-oxo-4,5,6,7-tetrahydro-benzoimidazol-1-yl)-benzonitrile]
[1]; [4]
  IC50: 3640 nM
[2]
  IC50: 24 nM
[3]
  Selectivity: 152

## NC(=O)N1CCCc2cc(-n3cnc4c3C(=O)CCC4)ccc21 [C-ADZ, 6-(7-Oxo-4,5,6,7-tetrahydro-benzoimidazol-1-yl)-3,4-dihydro-2H-quinoline-1-carboxylic acid amide]
[1]; [4]
  IC50: > 30000 nM
[2]
  IC50: 99 nM
[3]
  Selectivity: 300

## N#Cc1ccc(-n2cnc3c2C(=O)CCC3)cc1Cl [C-AEA, 2-Chloro-4-(7-oxo-4,5,6,7-tetrahydro-benzoimidazol-1-yl)-benzonitrile]
[1]; [5]
  IC50: 1100 nM
[2]
  IC50: 8.7 nM
[3]
  Selectivity: 130

## N#Cc1ccc(-n2cnc3c2C(=O)C[C@@H](C(N)=O)C3)cc1Cl [C-AEB-A, (S)-1-(3-Chloro-4-cyano-phenyl)-7-oxo-4,5,6,7-tetrahydro-1H-benzoimidazole-5-carboxylic acid amide]
[1]; [5]
  IC50: > 30000 nM
[2]
  IC50: 590 nM
[3]
  Selectivity: 51

## N#Cc1ccc(-n2cnc3c2C(=O)C[C@H](C(N)=O)C3)cc1Cl [C-AEB-B, (R)-1-(3-Chloro-4-cyano-phenyl)-7-oxo-4,5,6,7-tetrahydro-1H-benzoimidazole-5-carboxylic acid amide]
[1]; [5]
  IC50: > 30000 nM
[2]
  IC50: 32 nM
[3]
  Selectivity: 940

## Cn1ncc2c1CC(n1cnc3c1C(=O)CCC3)CC2 (stereo not drawn) [C-AEF, 3-(1-Methyl-4,5,6,7-tetrahydro-1H-indazol-6-yl)-3,5,6,7-tetrahydro-benzoimidazol-4-one]
[1]; [4]
  IC50: > 30000 nM
[2]
  IC50: 190 nM
[3]
  Selectivity: 160
